Laboratory results taken from ChEMBL document CHEMBL5143727, “Cytotoxic and Antibacterial Isomalabaricane Terpenoids from the Sponge Rhabdastrella globostellata” (J Nat Prod, 2022).
pIC50: −log10 of the molar value. Converted amounts (≈) assume the structure as drawn. The source made the active and inactive calls. The rule behind the calls is not given here.

Columns and labels:
Streptococcus pyogenes = experiment: Antibacterial activity against Streptococcus pyogenes ATCC 12344 assessed as bacterial growth inhibition incubated for 24 hrs by microdilution assay; format: functional
Staphylococcus aureus = experiment: Antibacterial activity against Staphylococcus aureus USA300 LAC assessed as bacterial growth inhibition incubated for 24 hrs by microdilution assay; format: functional, organism-based
HL-60 = experiment: Cytotoxicity against human HL-60 cells harboring wild type FLT3 assessed as inhibition of cell proliferation incubated for 72 hrs by MTT assay; format: functional, cell-based; conditions: for pIC50: HL-60, 72 h
MV4-11 = experiment: Cytotoxicity against human MV4-11 cells harboring FLT3-ITD mutant assessed as inhibition of cell proliferation incubated for 72 hrs by MTT assay; format: functional, cell-based; conditions: for pIC50: MV4-11, 72 h
U-87 MG [1] = experiment: Cytotoxicity against human U87 cells harboring wild type IDH1 assessed as inhibition of cell proliferation incubated for 72 hrs by MTT assay; format: functional, cell-based; conditions: U-87MG ATCC
U-87 MG [2] = experiment: Cytotoxicity against human U87 cells harboring IDH1-R132H mutant assessed as inhibition of cell proliferation incubated for 72 hrs by MTT assay; format: functional, cell-based; conditions: U-87MG ATCC
HCT-116 [3] = experiment: Cytotoxicity against human HCT-116 cells harboring wild type p53 assessed as inhibition of cell proliferation incubated for 72 hrs by MTT assay; format: functional, cell-based; conditions: for pIC50: HCT-116, 72 h
HCT-116 [4] = experiment: Cytotoxicity against human HCT-116 cells harboring p53-/- assessed as inhibition of cell proliferation incubated for 72 hrs by MTT assay; format: functional, cell-based

SMILES	MIC (Streptococcus pyogenes) [µg/mL]	Activity (Staphylococcus aureus)	Activity (U-87 MG [1])	Activity (U-87 MG [2])	Activity (HCT-116 [4])	also measured
CC(=O)/C=C/C(=O)/C(C)=C/C=C/C(C)=C1\C(=O)C[C@H]2[C@@]3(C)CCC(=O)C(C)(C)[C@@H]3CC[C@]12C [GEODITIN A]	0.9 (≈ 2 µM)	Active				
CC(=O)/C=C\C(=O)/C(C)=C/C=C/C(C)=C1\C(=O)C[C@H]2[C@@]3(C)CCC(=O)C(C)(C)[C@@H]3CC[C@]12C [ISOGEODITIN A]	0.4 (≈ 0.888 µM)	Active				
C\C(=C/C=C/C(C)=C1/C(=O)C[C@H]2[C@@]3(C)CCC(=O)C(C)(C)[C@@H]3CC[C@]12C)c1ccc(C)c(=O)o1 [STELLETIN A]	1.8 (≈ 3.89 µM)		Active	Active	Active	Activity (HL-60): Active; Activity (MV4-11): Active; Activity (HCT-116 [3]): Active
CC1=CC[C@@H](/C(C)=C/C=C/C(C)=C2\C(=O)C[C@H]3[C@@]4(C)CCC(=O)C(C)(C)[C@@H]4CC[C@]23C)OC1=O			Active	Active	Active	Activity (HL-60): Active; Activity (MV4-11): Active; Activity (HCT-116 [3]): Active
CC(=O)O[C@H]1CC[C@@]2(C)[C@@H](CC[C@]3(C)/C(=C(C)/C=C/C=C(\C)c4ccc(C)c(=O)o4)C(=O)C[C@@H]23)C1(C)C [STELLETTIN D]	2 (≈ 3.95 µM)		Active	Active	Active	pIC50 (HL-60): 7.82; pIC50 (MV4-11): 6.41; pIC50 (HCT-116 [3]): 5.63
CC(=O)/C=C\C(=O)/C(C)=C/C=C/C(C)=C1\C(=O)C[C@H]2[C@@]3(C)CC[C@H](OC(C)=O)C(C)(C)[C@@H]3CC[C@]12C [ISOGEODITIN B]	1.9 (≈ 3.84 µM)					
CC(=O)/C=C/C(=O)/C(C)=C/C=C/C(C)=C1/C(=O)C[C@H]2[C@@]3(C)CCC(=O)C(C)(C)[C@@H]3CC[C@]12C	1.8 (≈ 3.99 µM)	Active				
CC(=O)O[C@H]1CC[C@@]2(C)[C@@H](CC[C@]3(C)\C(=C(C)/C=C/C=C(\C)c4ccc(C)c(=O)o4)C(=O)C[C@@H]23)C1(C)C [STELLETTIN C]	2 (≈ 3.95 µM)		Active	Active	Active	Activity (HL-60): Active; Activity (MV4-11): Active; Activity (HCT-116 [3]): Active
CC(=O)O[C@H]1CC[C@@]2(C)[C@@H](CC[C@]3(C)/C(=C(C)/C=C/C=C(\C)[C@H]4CC=C(C)C(=O)O4)C(=O)C[C@@H]23)C1(C)C					Active	pIC50 (HL-60): 7.38; pIC50 (MV4-11): 6.55; pIC50 (HCT-116 [3]): 5.60
CC(=O)/C=C\C(=O)/C(C)=C/C=C/C(C)=C1/C(=O)C[C@H]2[C@@]3(C)CCC(=O)C(C)(C)[C@@H]3CC[C@]12C	0.1 (≈ 0.222 µM)	Active				
CC(=O)/C=C\C(=O)/C(C)=C/C=C/C(C)=C1/C(=O)C[C@H]2[C@@]3(C)CC[C@H](OC(C)=O)C(C)(C)[C@@H]3CC[C@]12C	1 (≈ 2.02 µM)	Active				
